{"source": "paper PMC7504215", "about": "“Copper(II) Complexes with Mixed Heterocycle Ligands as Promising Antibacterial and Antitumor Species” (Molecules, 2020)", "key": {"E. coli 5 ESBL": {"tested_on": "E. coli 5 ESBL", "experiment": "MIC assay, liquid medium microdilution (planktonic growth)", "format": "cell-based, Escherichia coli", "details": "E. coli 5 ESBL, 24 h at 37 °C", "procedure": "(§1) The antibacterial assays were performed on Gram-negative (Escherichia coli ATCC 25922, E. coli 5, Pseudomonas aeruginosa ATCC 27853, P. aeruginosa ATCC 9027) and Gram-positive (Staphylococcus aureus ATCC 25923, S. aureus ATCC 6538, MRSA (Meticillin-resistant S. aureus) 388, ATCC, American Type Culture Collection) bacterial strains. Microbial suspensions (1.5 × 10^8 CFU/mL; colony forming units (CFU)) corresponding to 0.5 McFarland density obtained from 15 to 18-h bacterial cultures developed on solid media were used. The antimicrobial activity was tested on Mueller–Hinton agar medium.\nThe quantitative assay of the antimicrobial activity was performed by the liquid medium microdilution method, in 96-well multi-well plates, to establish the minimal inhibitory concentration (MIC). For this purpose, serial two-fold dilutions of the compounds ranging between 1.000 and 1.95 μg/mL were performed in a 200 μL volume of broth and each well was seeded with 50 μL microbial inoculums. Sterility control (wells containing only culture medium) and culture controls (wells containing culture medium seeded with the microbial inoculum) were used. The influence of the DMSO solvent was also quantified in a series of wells containing DMSO, diluted accordingly with the dilution scheme used for the complexes. The plates were incubated for 24 h at 37 °C, and MIC values were considered as the lowest concentration of the tested compound that inhibited the visible growth of the microbial overnight cultures."}, "plasmid pRSII325": {"tested_on": "plasmid pRSII325", "experiment": "Nuclease activity assay, gel electrophoresis", "format": "biochemical", "details": "for Nuclease activity in the presence of H2O2: 3 µM compound + 1 mM H2O2, 1 h at 37 °C; for Nuclease activity in the presence of ascorbate: 3 µM compound + 1 mM ascorbate; for Nuclease activity in the presence of ascorbate / Nuclease activity, compound alone: 1 h at 37 °C; for Nuclease activity, compound alone: 3 µM compound, no activating agent", "procedure": "The nuclease activity of the compounds was determined using plasmid pRS325II DNA, which was a gift from Steven Haase (Addgene plasmid #35467, 6835 base pairs). The plasmid was amplified in Escherichia coli by transforming One Shot® TOP10 chemically competent E. coli from Invitrogen, Thermo Fisher Scientific (Vilnius, Lithuania). Plasmid was isolated from positive colonies using a PureLink™ HiPure Plasmid Miniprep Kit from Invitrogen, Thermo Fisher Scientific (Vilnius, Lithuania). Plasmid (200 ng/sample) was exposed to 3 µM compounds in the presence of 1 mM hydrogen peroxide (to exploit the Cu(II/III) redox couple) or 1 mM ascorbic acid (to exploit the Cu(I/II) redox couple). The DNA cleavage experiments for the complexes were done in a 9/1 (v/v) ratio of 50 mM Tris-HCl buffer, pH 8, and DMSO. The samples were incubated for 1 h at 37 °C before a bromophenol blue/xylene cyanol-based loading dye (Roth, Germany) was added to the samples. Partial cleavage of the plasmid to linear form was done with the restriction enzyme EcoRI (Promega, USA) by incubation for 5 min at 37 °C. The samples were loaded on a 1% (w/v) agarose gel containing 1 μg/mL EtBr in 1 × TAE (Tris–acetic acid–EDTA) buffer. Electrophoresis was performed at 100 V for 45 min in 1 × TAE buffer. The images of the fluorescent ethidium bromide-stained gels were captured using a gel documentation system (Doc-Print II, Vilber Lourmat, France). The cleavage experiments were done six times, with similar results. One representative gel is shown."}, "[1]": {"tested_on": "Saccharomyces cerevisiae (wild-type, WT) laboratory strain BY4741", "experiment": "Yeast cell proliferation (toxicity)", "format": "cell-based", "details": "for Effect on cell proliferation: 0.1–0.2 mM final concentration in liquid YPD, compared to cells grown without compounds; for IC50: S. cerevisiae BY4741 (WT), liquid YPD", "procedure": "The Saccharomyces cerevisiae laboratory strain BY4741 (MATa; his3Δ1; leu2Δ0; met15Δ0; ura3Δ0), considered wild type (WT), and the isogenic strains sod1Δ and sod2Δ lacking the genes SOD1 (encoding Cu/Zn-superoxide dismutase) and SOD2 (encoding Mn-superoxide dismutase) were purchased from EUROSCARF (Frankfurt, Germany). Cells were maintained and manipulated and grown in YPD medium (1% w/v yeast extract, 2% w/v peptone, 2% w/v glucose; 2% w/v agar was added for solid media). Complexes were added to autoclaved media from DMSO sterile stocks (10 mM). To determine the effect of compounds on yeast growth, a fresh overnight pre-culture was 10^3-fold diluted in YPD and incubated (200 rpm, 30 °C) until the culture reached a density of 5 × 10^5 cells/mL. At this point, the compounds were added to the desired concentrations, and cell proliferation was monitored at 660 nm in a 96-well multi-scanner autoreader plate reader equipped with a thermostat and shaker (Varioskan Thermo Fischer Scientific, Vantaa, Finland). The uptake of compounds by yeast cells was determined indirectly by measuring the increase of the total cellular copper content normalized to the total cellular protein determined by Bradford assay. All determinations were done on three biological replicates. The IC50 was calculated by nonlinear regression analysis using the Graphpad Prism software."}, "[2]": {"experiment": "Superoxide scavenging ability by EPR spectroscopy", "details": "2.5 μM complex in DMSO, O2− 10, 20 and 30 µM", "procedure": "The superoxide scavenging ability of the complexes was tested using the KO2 compound as a superoxide source combined with EPR spectroscopy. […] The KO2 was dissolved by complexation with dibenzo-18-crown-6-ether."}, "S. aureus 6538": {"tested_on": "S. aureus 6538", "experiment": "MBEC assay, micro-titer method (biofilm)", "format": "cell-based, Staphylococcus aureus", "procedure": "as §1\n(§2) The assessment of the complexes’ influence on the microbial ability to colonize an inert substratum with the establishment of the minimal biofilm eradication concentration (MBEC) was performed by the micro-titer method, following previously described protocols. The absorbance at 490 nm was measured with an Apollo LB 911ELISA (Berthold Technologies GmbH & Co. KG, Waltham, MA, USA) reader. All experiments were performed in triplicates."}, "MRSA": {"tested_on": "MRSA", "experiment": "MBEC assay, micro-titer method (biofilm)", "format": "cell-based, Staphylococcus aureus", "procedure": "as §1, §2"}}}
{"compound": "Cc1cc(-c2ccccc2)nc2ncnn12.[Cu+2].[O-][Cl+3]([O-])([O-])[O-].[O-][Cl+3]([O-])([O-])[O-].c1cnc2c(c1)ccc1cccnc12.c1cnc2c(c1)ccc1cccnc12", "note": "[(2), [Cu(phen)2(pmtp)](ClO4)2]", "values": [{"measurement": "MIC", "setting": "E. coli 5 ESBL", "value": 50, "unit": "µM"}, {"measurement": "Nuclease activity in the presence of H2O2", "setting": "plasmid pRSII325", "value": "led to DNA degradation"}, {"measurement": "Nuclease activity in the presence of ascorbate", "setting": "plasmid pRSII325", "value": "led to DNA degradation"}, {"measurement": "Nuclease activity, compound alone", "setting": "plasmid pRSII325", "value": "caused plasmid relaxation to the NC form"}, {"measurement": "Effect on cell proliferation", "setting": "[1]", "value": "did not significantly affect cell proliferation"}, {"measurement": "IC50", "setting": "[1]", "value": "580 ± 210", "unit": "µM"}, {"measurement": "Superoxide scavenging (EPR signal decrease)", "setting": "[2]", "value": "trap the superoxide radicals"}, {"measurement": "MBEC value", "setting": "S. aureus 6538", "value": 0.02, "unit": "mM"}, {"measurement": "MBEC value", "setting": "MRSA", "value": 0.05, "unit": "mM"}]}
{"compound": "Cc1cc(-c2ccccc2)nc2ncnn12.[Cu+2].[O-][Cl+3]([O-])([O-])[O-].[O-][Cl+3]([O-])([O-])[O-].c1ccc(-c2ccccn2)nc1.c1ccc(-c2ccccn2)nc1", "note": "[(1), [Cu(bpy)2(pmtp)](ClO4)2]", "values": [{"measurement": "MIC", "setting": "E. coli 5 ESBL", "value": 400, "unit": "µM"}, {"measurement": "Nuclease activity in the presence of H2O2", "setting": "plasmid pRSII325", "value": "led to DNA degradation"}, {"measurement": "Nuclease activity in the presence of ascorbate", "setting": "plasmid pRSII325", "value": "led to DNA degradation"}, {"measurement": "Nuclease activity, compound alone", "setting": "plasmid pRSII325", "value": "caused plasmid relaxation to the NC form"}, {"measurement": "Effect on cell proliferation", "setting": "[1]", "value": "did not significantly affect cell proliferation"}, {"measurement": "IC50", "setting": "[1]", "value": "480 ± 160", "unit": "µM"}, {"measurement": "Superoxide scavenging (EPR signal decrease)", "setting": "[2]", "value": "trap the superoxide radicals"}, {"measurement": "MBEC value", "setting": "S. aureus 6538", "value": 0.10, "unit": "mM"}, {"measurement": "MBEC value", "setting": "MRSA", "value": 0.40, "unit": "mM"}]}
